Consider twelve compounds from patent US11857519B2, “Compounds and methods for the targeted degradation of enhancer of zeste homolog 2 polypeptide” (Arvinas Operations, Inc., priority 2016, dated 2024).

The target of this assay is T1, EZH2 (Homo sapiens, UniProt Q15910).
T1 construct: Protocol of the Cellular Assay of Target Protein Degradation (VCaP Cells, ELISA); endogenous in cells; host or cells: VCaP cells
T1 sequence (Q15910 whole entry): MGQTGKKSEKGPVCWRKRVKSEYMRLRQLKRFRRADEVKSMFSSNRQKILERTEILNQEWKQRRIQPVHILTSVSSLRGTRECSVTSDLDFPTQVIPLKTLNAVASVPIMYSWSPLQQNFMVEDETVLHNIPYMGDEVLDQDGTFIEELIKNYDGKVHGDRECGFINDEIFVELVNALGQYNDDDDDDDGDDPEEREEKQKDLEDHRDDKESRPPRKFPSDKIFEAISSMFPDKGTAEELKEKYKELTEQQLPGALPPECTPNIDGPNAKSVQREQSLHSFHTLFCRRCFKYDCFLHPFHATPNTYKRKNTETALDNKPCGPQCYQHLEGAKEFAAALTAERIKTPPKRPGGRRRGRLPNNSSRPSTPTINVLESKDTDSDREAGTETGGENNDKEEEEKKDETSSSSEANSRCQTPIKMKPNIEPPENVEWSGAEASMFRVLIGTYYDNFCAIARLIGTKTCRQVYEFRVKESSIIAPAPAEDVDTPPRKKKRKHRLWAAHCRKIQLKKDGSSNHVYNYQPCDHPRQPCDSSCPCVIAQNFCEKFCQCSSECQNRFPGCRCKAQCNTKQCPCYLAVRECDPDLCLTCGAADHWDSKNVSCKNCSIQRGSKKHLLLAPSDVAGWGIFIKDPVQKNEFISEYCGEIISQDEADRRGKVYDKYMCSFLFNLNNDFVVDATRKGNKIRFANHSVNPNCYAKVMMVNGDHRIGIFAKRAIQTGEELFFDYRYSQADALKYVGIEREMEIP
T1 sequence (O75530 whole entry partner): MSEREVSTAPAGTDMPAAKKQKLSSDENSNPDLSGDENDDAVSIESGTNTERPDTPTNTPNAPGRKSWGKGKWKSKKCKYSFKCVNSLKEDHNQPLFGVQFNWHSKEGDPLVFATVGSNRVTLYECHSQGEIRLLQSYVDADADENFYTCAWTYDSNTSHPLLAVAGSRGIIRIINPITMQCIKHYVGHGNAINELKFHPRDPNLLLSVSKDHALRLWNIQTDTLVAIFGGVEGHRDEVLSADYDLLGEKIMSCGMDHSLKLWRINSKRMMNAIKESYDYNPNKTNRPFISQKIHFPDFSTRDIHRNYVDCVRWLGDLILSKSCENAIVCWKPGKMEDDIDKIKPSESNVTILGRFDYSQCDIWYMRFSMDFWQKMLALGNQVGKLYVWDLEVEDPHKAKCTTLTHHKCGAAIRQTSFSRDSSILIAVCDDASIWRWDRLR
T1 sequence (Q15022 whole entry partner): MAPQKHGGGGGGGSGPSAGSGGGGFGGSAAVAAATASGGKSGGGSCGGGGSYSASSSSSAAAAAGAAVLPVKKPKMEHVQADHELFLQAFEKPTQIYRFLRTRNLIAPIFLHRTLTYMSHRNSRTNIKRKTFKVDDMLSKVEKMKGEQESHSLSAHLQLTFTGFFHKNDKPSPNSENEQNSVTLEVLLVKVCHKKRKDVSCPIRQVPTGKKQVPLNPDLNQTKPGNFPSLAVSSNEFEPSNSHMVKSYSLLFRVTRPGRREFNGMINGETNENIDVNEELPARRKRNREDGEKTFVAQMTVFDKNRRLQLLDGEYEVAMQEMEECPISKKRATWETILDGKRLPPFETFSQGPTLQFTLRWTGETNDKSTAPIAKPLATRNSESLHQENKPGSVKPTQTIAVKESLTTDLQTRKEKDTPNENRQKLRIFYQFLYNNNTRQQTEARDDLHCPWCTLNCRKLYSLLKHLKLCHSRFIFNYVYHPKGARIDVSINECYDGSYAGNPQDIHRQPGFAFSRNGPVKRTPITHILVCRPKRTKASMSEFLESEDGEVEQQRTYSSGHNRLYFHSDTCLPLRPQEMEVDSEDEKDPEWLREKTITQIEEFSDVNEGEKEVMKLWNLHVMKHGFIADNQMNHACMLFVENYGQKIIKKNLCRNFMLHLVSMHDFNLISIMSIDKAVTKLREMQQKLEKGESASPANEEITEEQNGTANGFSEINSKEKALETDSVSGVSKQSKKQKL
Description: Cellular assay of target protein degradation (VCaP cells, ELISA). Format: cell-based. As to conditions: 4 hours, protein degradation range at indicated concentration (relative to DMSO control). The procedure: Protocol of the Cellular Assay of Target Protein Degradation (VCaP Cells, ELISA).
For detection Cell Signaling PathScan Sandwich ELISA Catalog #12850 Lot 11 was used. VCaP cells were cultured in ATCC DMEM+ATCC FBS and plated 40,000/well 100 μl/well in RPMI P/S with 5% CSS Omega (bovine) serum into a 96 well plate. The cells were grown for a minimum of 3 days, dosed with compounds in 0.1% DMSO (diluted with 5% CSS) and incubated with aspiration for 4 hours. 100 μl of 1× Cell Signaling lysis buffer #9803 (36 mL dH2O+4 mL Cell Signaling lysis buffer) was added. The incubation was placed on cold room shaker for 10 minutes at speed 8-9. 5 μl to 100 μL of Diluent was transferred to ELISA plate (0.15 μg/mL−0.075 μg/mL) and stored at 4° C. overnight on cold room shaker speed 5 (gentle swirl) and then shaken next morning at 37° C. for 30 minutes. The preparation was washed 4×200 μl with ELISA wash buffer and aspirated with eight-channel aspirator. 100 μl/well of target protein detection antibody was added after, which the preparation was covered and shaken at 37° C. for 1 hour. 100 μl TMB was added, and the mixture was shaken for 5 min while under observation. When TMB turned light blue, 100 μl of Stop solution was added, and the mixture was shaken and read at 450 nm. Also read at 562 nm for background subtraction.
In general terms: An ELISA detects its analyte on a solid surface through an enzyme-linked reagent.
Consider `CCN(c1cc(-c2ccc(OCCOCCOCC(=O)N[C@H](C(=O)N3C[C@H](O)C[C@H]3C(=O)N[C@@H](C)c3ccc(-c4scnc4C)cc3)C(C)(C)C)cc2)cc(C(=O)NCc2c(C)cc(C)[nH]c2=O)c1C)C1CCOCC1` [Compound 43, (2S,4R)-1-[(2S)-2-[2-(2-{2-[4-(3-{[(4,6-dimethyl-2-oxo-1,2-dihydropyridin-3-yl)methyl]carbamoyl}-5-[ethyl(oxan-4-yl)amino]-4-methylphenyl)phenoxy]ethoxy}ethoxy)acetamido]-3,3-dimethylbutanoyl]-4-hydroxy-N-[(1S)-1-[4-(4-methyl-1,3-thiazol-5-yl)phenyl]ethyl]pyrrolidine-2-carboxamide], for which the “percent target protein degradation class” value is on record as “A (A = degradation more than 60%)”.

For `CCN(c1cc(-c2ccc(OCCCOCCOCCOc3cc(-c4scnc4C)ccc3CNC(=O)[C@@H]3C[C@@H](O)CN3C(=O)[C@H](C(C)C)N3Cc4ccccc4C3=O)cc2)cc(C(=O)NCc2c(C)cc(C)[nH]c2=O)c1C)C1CCOCC1` [Compound 54, (2S,4R)-N-({2-[2-(2-{3-[4-(3-{[(4,6-dimethyl-2-oxo-1,2-dihydropyridin-3-yl)methyl]carbamoyl}-5-[ethyl(oxan-4-yl)amino]-4-methylphenyl)phenoxy]propoxy}ethoxy)ethoxy]-4-(4-methyl-1,3-thiazol-5-yl)phenyl}methyl)-4-hydroxy-1-[(2S)-3-methyl-2-(1-oxo-2,3-dihydro-1H-isoindol-2-yl)butanoyl]pyrrolidine-2-carboxamide], the “percent target protein degradation class” value was “B (B = degradation between 30% and 60%)”. The same measure for `CCN(c1cc(-c2ccc(OCCOCCCOc3ccc4c(c3)C(=O)N(C3CCC(=O)NC3=O)C4=O)cc2)cc(C(=O)NCc2c(C)cc(C)[nH]c2=O)c1C)C1CCOCC1` (stereo not drawn) [Compound 58, N-[(4,6-dimethyl-2-oxo-1,2-dihydropyridin-3-yl)methyl]-5-{4-[2-(3-{[2-(2,6-dioxopiperidin-3-yl)-1,3-dioxo-2,3-dihydro-1H-isoindol-5-yl]oxy}propoxy)ethoxy]phenyl}-3-[ethyl(oxan-4-yl)amino]-2-methylbenzamide]: “A (A = degradation more than 60%)”; for `CCN(c1cc(-c2ccc(OCCOCCOCCOCCOCCOCCNc3cccc4c3C(=O)N(C3CCC(=O)NC3=O)C4=O)cc2)cc(C(=O)NCc2c(C)cc(C)[nH]c2=O)c1C)C1CCOCC1` (stereo not drawn) [Compound 19, N-[(4,6-dimethyl-2-oxo-1,2-dihydropyridin-3-yl)methyl]-5-[4-({1-[2-(2,6-dioxopiperidin-3-yl)-1,3-dioxo-2,3-dihydro-1H-isoindol-4-yl]-4,7,10,13,16-pentaoxa-1-azaoctadecan-18-yl}oxy)phenyl]-3-[ethyl(oxan-4-yl)amino]-2-methylbenzamide]: “B (B = degradation between 30% and 60%)”; for `CCN(c1cc(-c2ccc(OCCCCCCOc3cc(C(C(=O)N4C[C@H](O)C[C@H]4C(=O)N[C@@H](C)c4ccc(-c5scnc5C)cc4)C(C)C)on3)cc2)cc(C(=O)NCc2c(C)cc(C)[nH]c2=O)c1C)C1CCOCC1` (stereo partly drawn) [Compound 106, (2S,4R)-1-(2-(3-((6-((3′-(((4,6-dimethyl-2-oxo-1,2-dihydropyridin-3-yl)methyl)carbamoyl)-5′-(ethyl(tetrahydro-2H-pyran-4-yl)amino)-4′-methyl-[1,1′-biphenyl]-4-yl)oxy)hexyl)oxy)isoxazol-5-yl)-3-methylbutanoyl)-4-hydroxy-N-((S)-1-(4-(4-methylthiazol-5-yl)phenyl)ethyl)pyrrolidine-2-carboxamide]: “A (A = degradation more than 60%)”.

For `CCN(c1cc(-c2ccc(OCCOCCOc3cc(C(C(=O)N4C[C@H](O)C[C@H]4C(=O)N[C@@H](C)c4ccc(-c5scnc5C)cc4)C(C)C)on3)cc2)cc(C(=O)NCc2c(C)cc(C)[nH]c2=O)c1C)C1CCOCC1` (stereo partly drawn) [Compound 105], the “percent target protein degradation class” value is given as “A (A = degradation more than 60%)”. The same measure for `CCN(c1cc(-c2ccc(OCCCOCCCCOc3cc(-c4scnc4C)ccc3CNC(=O)[C@@H]3C[C@@H](O)CN3C(=O)[C@H](C(C)C)N3Cc4ccccc4C3=O)cc2)cc(C(=O)NCc2c(C)cc(C)[nH]c2=O)c1C)C1CCOCC1` [Compound 51, (2S,4R)-N-{[2-(4-{3-[4-(3-{[(4,6-dimethyl-2-oxo-1,2-dihydropyridin-3-yl)methyl]carbamoyl}-5-[ethyl(oxan-4-yl)amino]-4-methylphenyl)phenoxy]propoxy}butoxy)-4-(4-methyl-1,3-thiazol-5-yl)phenyl]methyl}-4-hydroxy-1-[(2S)-3-methyl-2-(1-oxo-2,3-dihydro-1H-isoindol-2-yl)butanoyl]pyrrolidine-2-carboxamide]: “B (B = degradation between 30% and 60%)”; for `CCN(c1cc(-c2ccc(OCCOCCOCCOCCOc3cc(-c4scnc4C)ccc3CNC(=O)[C@@H]3C[C@@H](O)CN3C(=O)[C@H](C(C)C)N3Cc4ccccc4C3=O)cc2)cc(C(=O)NCc2c(C)cc(C)[nH]c2=O)c1C)C1CCOCC1` [Compound 36, (2S,4R)-N-{[2-({1-[4-(3-{[(4,6-dimethyl-2-oxo-1,2-dihydropyridin-3-yl)methyl]carbamoyl}-5-[ethyl(oxan-4-yl)amino]-4-methylphenyl)phenyl]-1,4,7,10-tetraoxadodecan-12-yl}oxy)-4-(4-methyl-1,3-thiazol-5-yl)phenyl]methyl}-4-hydroxy-1-[(2S)-3-methyl-2-(1-oxo-2,3-dihydro-1H-isoindol-2-yl)butanoyl]pyrrolidine-2-carboxamide]: “B (B = degradation between 30% and 60%)”; for `CCN(c1cc(-c2ccc(N3CCN(CCCOCCOCC(=O)N[C@H](C(=O)N4C[C@H](O)C[C@H]4C(=O)N[C@@H](C)c4ccc(-c5scnc5C)cc4)C(C)(C)C)CC3)cc2)cc(C(=O)NCc2c(C)cc(C)[nH]c2=O)c1C)C1CCOCC1` [Compound 119, (2S,4R)-1-((S)-2-(2-(2-(3-(4-(3′-(((4,6-dimethyl-2-oxo-1,2-dihydropyridin-3-yl)methyl)carbamoyl)-5′-(ethyl(tetrahydro-2H-pyran-4-yl)amino)-4′-methyl-[1,1′-biphenyl]-4-yl)piperazin-1-yl)propoxy)ethoxy)acetamido)-3,3-dimethylbutanoyl)-4-hydroxy-N-((S)-1-(4-(4-methylthiazol-5-yl)phenyl)ethyl)pyrrolidine-2-carboxamide]: “B (B = degradation between 30% and 60%)”. Next, `CCN(c1cc(-c2ccc(OCCCOc3ccc4c(c3)C(=O)N([C@H](C(=O)N3C[C@H](O)C[C@H]3C(=O)N[C@@H](C)c3ccc(-c5scnc5C)cc3)C(C)C)C4)cc2)cc(C(=O)NCc2c(C)cc(C)[nH]c2=O)c1C)C1CCOCC1` [Compound 98, (2S,4R)-1-((S)-2-(6-(3-((3′-(((4,6-dimethyl-2-oxo-1,2-dihydropyridin-3-yl)methyl)carbamoyl)-5′-(ethyl(tetrahydro-2H-pyran-4-yl)amino)-4′-methyl-[1,1′-biphenyl]-4-yl)oxy)propoxy)-1-oxoisoindolin-2-yl)-3-methylbutanoyl)-4-hydroxy-N-((S)-1-(4-(4-methylthiazol-5-yl)phenyl)ethyl)pyrrolidine-2-carboxamide]: “B (B = degradation between 30% and 60%)”; `CCN(c1cc(-c2ccc(OCCOc3cc(-c4scnc4C)ccc3CNC(=O)[C@@H]3C[C@@H](O)CN3C(=O)[C@H](C(C)C)N3Cc4ccccc4C3=O)cc2)cc(C(=O)NCc2c(C)cc(C)[nH]c2=O)c1C)C1CCOCC1` [Compound 64, N-[(2-{2-[4-(3-{[(4,6-dimethyl-2-oxo-1,2-dihydropyridin-3-yl)methyl]carbamoyl}-5-[ethyl(oxan-4-yl)amino]-4-methylphenyl)phenoxy]ethoxy}-4-(4-methyl-1,3-thiazol-5-yl)phenyl)methyl]-4-hydroxy-1-[3-methyl-2-(1-oxo-2,3-dihydro-1H-isoindol-2-yl)butanoyl]pyrrolidine-2-carboxamide]: “B (B = degradation between 30% and 60%)”. Next, `CCN(c1cc(-c2ccc(OCCCCCOc3cc(C(C(=O)N4C[C@H](O)C[C@H]4C(=O)N[C@@H](C)c4ccc(-c5scnc5C)cc4)C(C)C)on3)cc2)cc(C(=O)NCc2c(C)cc(C)[nH]c2=O)c1C)C1CCOCC1` (stereo partly drawn) [Compound 104, (2S,4R)-1-(2-(3-(5-(3′-((4,6-dimethyl-2-oxo-1,2-dihydropyridin-3-yl)methylcarbamoyl)-5′-(ethyl(tetrahydro-2H-pyran-4-yl)amino)-4′-methylbiphenyl-4-yloxy)pentyloxy)isoxazol-5-yl)-3-methylbutanoyl)-4-hydroxy-N—((S)-1-(4-(4-methylthiazol-5-yl)phenyl)ethyl)pyrrolidine-2-carboxamide]: “A (A = degradation more than 60%)”.
